Here are results for 16 compounds from patent US9376425B2, “Heterocyclic compounds as MDM2 inhibitors for the treatment of cancer” (AMGEN INC., priority 2011, dated 2016).

What is called IC50 is the concentration that gives 50% inhibition. Low readings indicate greater potency, high ones weaker potency.

Structures are written as SMILES.

The target of the test is T1, human MDM2 (GST-hMDM2 1-188), interaction with biotinylated-p53 (1-83) (Homo sapiens, UniProt Q00987).
T1 construct: Amino acid residues 1-188 of human MDM2 were expressed; made in house; host or cells: Escherichia coli
T1 sequence (Q00987 1-188): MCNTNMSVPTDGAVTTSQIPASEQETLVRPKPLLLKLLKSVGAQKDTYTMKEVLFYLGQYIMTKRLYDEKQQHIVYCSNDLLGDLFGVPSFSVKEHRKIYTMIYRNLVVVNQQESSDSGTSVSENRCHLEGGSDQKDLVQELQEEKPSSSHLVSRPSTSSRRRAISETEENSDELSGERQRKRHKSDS
As to the kind of experiment: improved HTRF assay (HTRF2 assay), inhibition of HDM2-p53 interaction. It is filed as binding. The conditions noted are these: 0.2 nM GST-hMDM2, 0.5 nM biotinylated-p53, 100 mM KF. A digest of the protocol: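 Time-resolved fluorescence (HTRF) read after >4 h equilibration with SA-XLent/anti-GST cryptate/KF detection reagents. Reaction: compound plus GST-hMDM2 for 20 min at room temperature, then E. coli-expressed biotinylated p53 residues 1-83 for 60 min, 2% DMSO final. Inhibition expressed versus nutlin-3.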
Compound `O=C1[C@@H](Cc2ncn[nH]2)O[C@H](c2cccc(Cl)c2)[C@@H](c2ccc(Cl)cc2)N1[C@H](CN(c1ccccc1F)S(=O)(=O)C1CC1)C1CC1` (single isomer, unassigned) [Example 396, N-((S)-2-((2R,5R,6R)-2-((1H-1,2,4-Triazol-5-yl)methyl)-6-(3-chlorophenyl)-5-(4-chlorophenyl)-3-oxomorpholino)-2-cyclopropylethyl)-N-(2-fluorophenyl)cyclopropanesulfonamide or N-((S)-2-((2S,5R,6R)-2-((1H-1,2,4-triazol-5-yl)methyl)-6-(3-chlorophenyl)-5-(4-chlorophenyl)-3-oxomorpholino)-2-cyclopropylethyl)-N-(2-fluorophenyl)cyclopropanesulfonamide] yielded an IC50 of 2 nM.

Compound `O=C1[C@@H](Cc2ncn[nH]2)O[C@H](c2cccc(Cl)c2)[C@@H](c2ccc(Cl)cc2)N1[C@H](CN(c1ccccc1F)S(=O)(=O)C1CC1)C1CC1` (single isomer, unassigned) [Example 397, N-((S)-2-((2R,5R,6R)-2-((1H-1,2,4-Triazol-5-yl)methyl)-6-(3-chlorophenyl)-5-(4-chlorophenyl)-3-oxomorpholino)-2-cyclopropylethyl)-N-(2-fluorophenyl)cyclopropanesulfonamide or N-((S)-2-((2S,5R,6R)-2-((1H-1,2,4-triazol-5-yl)methyl)-6-(3-chlorophenyl)-5-(4-chlorophenyl)-3-oxomorpholino)-2-cyclopropylethyl)-N-(2-fluorophenyl)cyclopropanesulfonamide] displayed an IC50 of 1 nM. This IC50 lies about 2-fold lower than the previous one.

Take `O=C1[C@@H](Cc2nnn[nH]2)O[C@H](c2cccc(Cl)c2)[C@@H](c2ccc(Cl)cc2)N1[C@H](CN(c1ccccc1F)S(=O)(=O)C1CC1)C1CC1` (single isomer, unassigned) [Example 398, N-((S)-2-((2R,5R,6R)-2-((1H-Tetrazol-5-yl)methyl)-6-(3-chlorophenyl)-5-(4-chlorophenyl)-3-oxomorpholino)-2-cyclopropylethyl)-N-(2-fluorophenyl)cyclopropanesulfonamide or N-((S)-2-((2S,5R,6R)-2-((1H-tetrazol-5-yl)methyl)-6-(3-chlorophenyl)-5-(4-chlorophenyl)-3-oxomorpholino)-2-cyclopropylethyl)-N-(2-fluorophenyl)cyclopropanesulfonamide]: the IC50 was less than 1 nM.

The compound `O=C1[C@@H](Cc2nnn[nH]2)O[C@H](c2cccc(Cl)c2)[C@@H](c2ccc(Cl)cc2)N1[C@H](CN(c1ccccc1F)S(=O)(=O)C1CC1)C1CC1` (single isomer, unassigned) [Example 399, N-((S)-2-((2R,5R,6R)-2-((1H-Tetrazol-5-yl)methyl)-6-(3-chlorophenyl)-5-(4-chlorophenyl)-3-oxomorpholino)-2-cyclopropylethyl)-N-(2-fluorophenyl)cyclopropanesulfonamide or N-((S)-2-((2S,5R,6R)-2-((1H-tetrazol-5-yl)methyl)-6-(3-chlorophenyl)-5-(4-chlorophenyl)-3-oxomorpholino)-2-cyclopropylethyl)-N-(2-fluorophenyl)cyclopropanesulfonamide] gave an IC50 of less than 1 nM.

Compound `CC[C@@H](CS(=O)(=O)C(C)(C)C)N1C(=O)[C@@H](Cc2nnnn2C)O[C@H](c2cccc(Cl)c2)[C@H]1c1ccc(Cl)cc1` (single isomer, unassigned) [Example 400, (2R,5R,6R)-4-((S)-1-(tert-Butylsulfonyl)butan-2-yl)-6-(3-chlorophenyl)-5-(4-chlorophenyl)-2-((1-methyl-1H-tetrazol-5-yl)methyl)morpholin-3-one or (2R,5R,6R)-4-((S)-1-(tert-butylsulfonyl)butan-2-yl)-6-(3-chlorophenyl)-5-(4-chlorophenyl)-2-((2-methyl-2H-tetrazol-5-yl)methyl)morpholin-3-one] returned an IC50 of 37 nM. This lies in the double-digit nanomolar range.

Compound `CC[C@@H](CS(=O)(=O)C(C)(C)C)N1C(=O)[C@@H](Cc2nnnn2C)O[C@H](c2cccc(Cl)c2)[C@H]1c1ccc(Cl)cc1` (single isomer, unassigned) [Example 401, (2R,5R,6R)-4-((S)-1-(tert-Butylsulfonyl)butan-2-yl)-6-(3-chlorophenyl)-5-(4-chlorophenyl)-2-((1-methyl-1H-tetrazol-5-yl)methyl)morpholin-3-one or (2R,5R,6R)-4-((S)-1-(tert-butylsulfonyl)butan-2-yl)-6-(3-chlorophenyl)-5-(4-chlorophenyl)-2-((2-methyl-2H-tetrazol-5-yl)methyl)morpholin-3-one] gave an IC50 of 38 nM.

`Cc1nnc(C[C@H]2O[C@H](c3cccc(Cl)c3)[C@@H](c3ccc(Cl)cc3)N([C@H](CN(c3ccccc3F)S(=O)(=O)C3CC3)C3CC3)C2=O)o1` (single isomer, unassigned) [Example 403, N-((S)-2-((2R,3R,6R)-2-(3-Chlorophenyl)-3-(4-chlorophenyl)-6-((5-methyl-1,3,4-oxadiazol-2-yl)methyl)-5-oxomorpholino)-2-cyclopropylethyl)-N-(2-fluorophenyl)cyclopropanesulfonamide or N-((S)-2-((2S,3R,6R)-2-(3-chlorophenyl)-3-(4-chlorophenyl)-6-((5-methyl-1,3,4-oxadiazol-2-yl)methyl)-5-oxomorpholino)-2-cyclopropylethyl)-N-(2-fluorophenyl)cyclopropanesulfonamide] returned a concentration for half-maximal inhibition (IC50) of 2 nM.

Compound `Cc1nnc(C[C@H]2O[C@@H](c3cccc(Cl)c3)[C@@H](c3ccc(Cl)cc3)N([C@H](CN(c3ccccc3F)S(=O)(=O)C3CC3)C3CC3)C2=O)o1` (single isomer, unassigned) [Example 404, N-((S)-2-((2S,3R,6R)-2-(3-Chlorophenyl)-3-(4-chlorophenyl)-6-((5-methyl-1,3,4-oxadiazol-2-yl)methyl)-5-oxomorpholino)-2-cyclopropylethyl)-N-(2-fluorophenyl)cyclopropanesulfonamide or N-((S)-2-((2R,3R,6R)-2-(3-chlorophenyl)-3-(4-chlorophenyl)-6-((5-methyl-1,3,4-oxadiazol-2-yl)methyl)-5-oxomorpholino)-2-cyclopropylethyl)-N-(2-fluorophenyl)cyclopropanesulfonamide] had an IC50 of 134 nM.

For the compound `NS(=O)(=O)C[C@H]1O[C@H](c2cccc(Cl)c2)[C@@H](c2ccc(Cl)cc2)N([C@H](CN(c2ccccc2F)S(=O)(=O)C2CC2)C2CC2)C1=O` (single isomer, unassigned) [Example 409, N-((S)-2-((2R,3R,6S)-2-(3-Chlorophenyl)-3-(4-chlorophenyl)-5-oxo-6-(sulfamoylmethyl)morpholino)-2-cyclopropylethyl)-N-(2-fluorophenyl)cyclopropanesulfonamide or N-((S)-2-((2S,3R,6S)-2-(3-chlorophenyl)-3-(4-chlorophenyl)-5-oxo-6-(sulfamoylmethyl)morpholino)-2-cyclopropylethyl)-N-(2-fluorophenyl)cyclopropanesulfonamide], the IC50 is less than 1 nM.

Take `NS(=O)(=O)C[C@H]1O[C@H](c2cccc(Cl)c2)[C@@H](c2ccc(Cl)cc2)N([C@H](CN(c2ccccc2F)S(=O)(=O)C2CC2)C2CC2)C1=O` (single isomer, unassigned) [Example 410, N-((S)-2-((2R,3R,6S)-2-(3-Chlorophenyl)-3-(4-chlorophenyl)-5-oxo-6-(sulfamoylmethyl)morpholino)-2-cyclopropylethyl)-N-(2-fluorophenyl)cyclopropanesulfonamide or N-((S)-2-((2S,3R,6S)-2-(3-chlorophenyl)-3-(4-chlorophenyl)-5-oxo-6-(sulfamoylmethyl)morpholino)-2-cyclopropylethyl)-N-(2-fluorophenyl)cyclopropanesulfonamide]: the IC50 is less than 1 nM.

Turning to `CC(C)(C)S(=O)(=O)C[C@H](C1CC1)N1C(=O)[C@@](C)(CC(=O)O)O[C@H](c2cccc(Cl)c2)[C@H]1c1ccc(Cl)c(F)c1` (single isomer, unassigned) [Example 411, 2-((2R,5R,6R)-4-((S)-2-(tert-Butylsulfonyl)-1-cyclopropylethyl)-5-(4-chloro-3-fluorophenyl)-6-(3-chlorophenyl)-2-methyl-3-oxomorpholin-2-yl)acetic acid or 2-((2S,5R,6R)-4-((S)-2-(tert-butylsulfonyl)-1-cyclopropylethyl)-5-(4-chloro-3-fluorophenyl)-6-(3-chlorophenyl)-2-methyl-3-oxomorpholin-2-yl)acetic acid], the IC50 was less than 1 nM.

Turning to `CC(C)(C)S(=O)(=O)C[C@H](C1CC1)N1C(=O)[C@@](C)(CC(=O)O)O[C@H](c2cccc(Cl)c2)[C@H]1c1ccc(Cl)c(F)c1` (single isomer, unassigned) [Example 412, 2-((2R,5R,6R)-4-((S)-2-(tert-Butylsulfonyl)-1-cyclopropylethyl)-5-(4-chloro-3-fluorophenyl)-6-(3-chlorophenyl)-2-methyl-3-oxomorpholin-2-yl)acetic acid or 2-((2S,5R,6R)-4-((S)-2-(tert-butylsulfonyl)-1-cyclopropylethyl)-5-(4-chloro-3-fluorophenyl)-6-(3-chlorophenyl)-2-methyl-3-oxomorpholin-2-yl)acetic acid], the IC50 was 11 nM.

`CC[C@@H]([C@H](C)S(=O)(=O)C(C)C)N1C(=O)[C@@H](CC(=O)O)O[C@H](c2cccc(Cl)c2)[C@H]1c1ccc(Cl)cc1` (single isomer, unassigned) [Example 413]: the IC50 was less than 1 nM.

In turn, `CC[C@@H]([C@H](C)S(=O)(=O)C(C)C)N1C(=O)[C@@H](CC(=O)O)O[C@H](c2cccc(Cl)c2)[C@H]1c1ccc(Cl)cc1` (single isomer, unassigned) [Example 414] returned an IC50 of 1 nM.

For the compound `CC[C@@H]([C@H](C)S(=O)(=O)C(C)C)N1C(=O)[C@@H](CC(=O)O)O[C@H](c2cccc(Cl)c2)[C@H]1c1ccc(Cl)cc1` (single isomer, unassigned) [Example 415], it took 1 nM to reach half-maximal inhibition (IC50).

Take `CC[C@@H]([C@H](C)S(=O)(=O)C(C)C)N1C(=O)[C@@H](CC(=O)O)O[C@H](c2cccc(Cl)c2)[C@H]1c1ccc(Cl)cc1` (single isomer, unassigned) [Example 416]: the IC50 stood at 4 nM.
